Measured values as given in patent US20100036088A1, “Selective poly-N-substituted glycine antibiotics” (priority 2008, published 2010).
≈ marks a conversion by molar mass, not a printed value. Read-outs that look alike come from different tables or passages of the source. Numbered stars: 1 amine (or outer) side, 2 acyl side, 3 side chain; on linkers, the order of the positions; unused ones are H or OH. Square brackets hold non-standard residues; d marks the D form. Peptide text beside a SMILES is read from it. X2 = CCC[C@H](C)N(CC(=O)[*:2])[*:1]; Nspe = C[C@H](NCC(=O)O)c1ccccc1; Nphe = O=C(O)CNCc1ccccc1; Nlys = NCCCCNCC(=O)O

Legend:
[1] = RP-HPLC elution solvent composition as measure of molecular hydrophobicity; assay type: physicochemical
From the text: An initial set of 15 ampetoid analogs was synthesized to determine whether peptoids are affected by structural and sequence modifications in a manner consistent with AMP activities. The designs for ampetoids in this library were derived from two antibacterial and selective amphipathic dodecamers, 1 and 2. Peptoid 1 [H-(Nlys-Nspe-Nspe)4—NH2] is composed of 2/3 Nspe, the peptoid analog of phenylalanine, and 1/3 Nlys, the peptoid analog of lysine (see FIG. 1 for the structures of representative peptoid monomers and corresponding N-substituents). Peptoid 2 [H-(Nlys-Nssb-Nspe)4—NH2] contains 1/3 isoleucine-like Nssb monomers in place of Nspe. The variant sequences were designed to effect changes in chirality, length, hydrophobicity, charge, and amphipathicity. All of these compounds were tested for antibacterial activity against representative BSL1 Gram-negative (E. coli JM109) and Gram-positive (B. subtilis BR151) bacterial strains. As an initial measure of selectivity, the lytic activity of the peptoids was determined against human erythrocytes. Table 1 summarizes the sequences synthesized, the solvent composition at RP-HPLC elution as a relative measure of molecular hydrophobicity, and antibacterial and hemolytic activities.
Following synthesis, peptoid oligomers can be cleaved from the resin, simultaneously removing the tert-butoxycarbonyl (Boc) protecting group from Nlys residues, by treatment with 10 ml 2,2,2-trifluoroacetic acid (TFA)/triisopropylsilane/H2O (95:2.5:2.5 by volume) for 30 min. The cleavage mixture is then diluted with 25 ml 50% aqueous acetonitrile, frozen, and lyophilized. Dilution and lyophilization is repeated twice more in order to remove excess TFA. Subsequent to cleavage, peptoids are each purified to >97% homogeneity by preparative scale reversed-phase HPLC using a Waters Prep LC 4000 system, with Waters 2487 dual-wavelength UV detection, and gradient elution (solvent A, 0.1 vol % trifluoroacetic acid (TFA) in water; solvent B, 0.1 vol % TFA in acetonitrile) through a Vydac (Hysperia, Calif.) 214TP101550 C4 peptide/protein column (10-15 μm, 300 Å, 5×25 cm). Following prep HPLC, peptoid purities and crude yields were determined from analytical scale HPLC, performed with a Waters 2695 Separations Module with a Waters 2487 dual-wavelength UV detector and gradient elution (solvent A, 0.1 vol % TFA in water; solvent B, 0.1 vol % TFA in acetonitrile) through a Vydac C4 214TP53 peptide/protein column (5 μm, 300 Å, 3.2×250 mm). The precise gradient employed for HPLC depended on the identity and hydrophobicity of the oligomer in question. All analytical HPLC was performed at 0.5 ml/min flow and 58° C. Preparative HPLC was performed at 50 ml/min flow and room temperature.

[2] = MTS assay, metabolic inhibition; assay type: cell-based, mouse
Summary of the method: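 NIH/3T3 cells seeded at 5,000 per well, grown a day, then exposed to serially diluted peptoids in HBSS together with MTS reagent. Absorbance at 490 nm read after 3 hours at 37° C.; mean of six replicates.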

E. coli (ATCC 35218) = assay type: cell-based; details: ATCC 35218
Summary of the method: (§1)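 MICs by broth microdilution per CLSI M7-A6 in cation-adjusted Mueller-Hinton broth, using 2:1 serial dilutions of peptoid and a bacterial inoculum of 1×10^6 CFU/mL. Values reproducible over three experiments, each with two parallel trials.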

B. subtilis (ATCC 6633) = assay type: cell-based; details: ATCC 6633
Summary of the method: as §1

human erythrocytes = assay: Hemolysis assay; assay type: cell-based; details: for HD10 (10% hemolytic dose) / HD50 (50% hemolytic dose): red cells of human, 1 h
Summary of the method: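 Peptoid serial dilutions in PBS pH 7.4 were combined with an equal volume of 20 vol % washed human red cells (heparinised blood) for 1 h at 37 °C. After dilution and pelleting at 1200 g, released haemoglobin in supernatant was read at A350, scaled between PBS and 0.2 vol % Triton X-100 controls.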

[3] = tested on: A549 lung epithelial cells; assay: MTS assay, metabolic inhibition; details: A549 cells, MTS assay, FIG. 2
Description: The biocompatibility of selected oligomers with A549 lung epithelial cells was evaluated using the MTS [3-(4,5-dimethylthiazol-2-yl)-5-(3-carboxymethoxyphenyl)-2-(4-sulfophenyl)-2H-tetrazolium] assay.
MTS Assays. A549 carcinoma-derived lung epithelial cells (ATTC CCL-185) were cultured in Ham's F12K media (ATTC, Manassas, Va.). A peptoid solution plate (100 μL/well) was prepared by serial dilution of aqueous peptoid stocks in media. Peptoid solutions were transferred onto a 96-well plate of day-old cell monolayers containing 100 μL/well media with ˜5000 cells/well. MTS reagent (Promega Corporation, Madison, Wis.) (40 μL/well) was added to each well and the plate was incubated at 37° C. for 3 h, after which absorbance at 490 nm was determined. Percent inhibition was determined as [1−(A−Atest blank)/(Acontrol−Ablank)]×100, where A is the absorbance of the test well and Acontrol the average absorbance of wells with cells exposed to media and MTS (no peptoid). Atest blank (media, MTS, and peptoid) and Ablank (media and MTS) were background absorbances measured in the absence of cells. The average of six replicates are reported, and error bars show one standard deviation.

[4] = tested on: Enterobacter aerogenes ATCC 35029; assay type: cell-based; details: ATCC 35029
Description: (§2) Antibacterial assays. MICs were determined according to CLSI M7-A6 protocols in a 96-well microtiter plate. In test wells, 50 μL bacterial inoculum (5×10^5 CFU/ml) in Mueller-Hinton broth (MHB) was added to 50 μL peptoid solution in MHB (prepared by 1:2 serial dilutions). Positive controls contained 50 μL inoculum and 50 μL MHB without peptoid. […] MIC values reported were reproducible between three independent experimental replicates, each consisting of two parallel trials. Broad-spectrum antimicrobial susceptibility testing was performed against BSL2 pathogens by Nova Biologicals, Inc. (Conroe, Tex.).
(§3) Broad-spectrum antibacterial assays. MICs of compounds were determined by microdilution procedure in Mueller-Hinton broth (MHB) in accordance with CLSI M7-A6 protocols in a manner similar to that described for the screen antibacterial assays. Inoculated microtiter plates were incubated at 35° C. for 24 hours prior to the result being recorded. Four ATCC strains that were used as standards are recommended by CLSI: Pseudomonas aeruginosa ATCC 27853, Escherichia coli ATCC 25922, Staphylococcus aureus ATCC 29213 and Enterococcus faecalis ATCC 29212. Other strains from the ATCC collection include Proteus vulgaris ATCC 49132, Proteus mirabilis ATCC 35659, Klebsiella pneumoniae ATCC 33495, Enterobacter aerogenes ATCC 35029 and Serratia marcescens ATCC 13880. S. aureus NRS100 (COL) is a well characterized methicillian-resistant S. aureus (MRSA) strain. The strains S. aureus VAN1 and S. aureus VAN2, vancomycin-resistant MRSA strains that were isolated in Michigan and Pennsylvania, were the first vancomycin-resistant strains clinically isolated. S. aureus NRS119 and S. aureus NRS120 are linezolid-resistant isolates from the Network on Antimicrobial Resistance in S. aureus (NARSA) collection. E. faecalis 99 and E. faecium 106 are vancomycin-resistant enterococcal strains.

[5] = tested on: Pseudomonas aeruginosa ATCC 27853; assay type: cell-based; details: ATCC 27853
Description: as §2, §3

[6] = tested on: Enterococcus faecalis ATCC 29212; assay type: cell-based; details: ATCC 29212
Description: as §2, §3

[7] = tested on: Proteus mirabilis ATCC 35659; assay type: cell-based; details: ATCC 35659
Description: as §2, §3

[8] = tested on: Proteus vulgaris ATCC 49132; assay type: cell-based; details: ATCC 49132
Description: as §2, §3

Enterococcus faecium 106 = assay type: cell-based; details: 106
Description: as §2, §3

[9] = tested on: Staphylococcus aureus NRS120; assay type: cell-based; details: NRS120
Description: as §2, §3

[10] = tested on: Staphylococcus aureus VAN1; assay type: cell-based; details: VAN1
Description: as §2, §3

[11] = tested on: Staphylococcus aureus NRS100 (COL); assay type: cell-based; details: NRS100 (COL)
Description: as §2, §3

Enterococcus faecalis 99 = assay type: cell-based; details: 99
Description: as §2, §3

[12] = tested on: Staphylococcus aureus ATCC 29213; assay type: cell-based; details: ATCC 29213
Description: as §2, §3

[13] = tested on: Klebsiella pneumoniae ATCC 33495; assay type: cell-based; details: ATCC 33495
Description: as §2, §3

[14] = tested on: Escherichia coli ATCC 25922; assay type: cell-based; details: ATCC 25922
Description: as §2, §3

[15] = tested on: Staphylococcus aureus NRS119; assay type: cell-based; details: NRS119
Description: as §2, §3

[16] = tested on: Serratia marcescens ATCC 13880; assay type: cell-based; details: ATCC 13880
Description: as §2, §3

[17] = tested on: Staphylococcus aureus VAN2; assay type: cell-based; details: VAN2
Description: as §2, §3

CC(C)[C@H](C)N(CC(N)=O)C(=O)CN(C(=O)CN(CCCCN)C(=O)CN(C(=O)CN(C(=O)CN(CCCCN)C(=O)CN(C(=O)CN(C(=O)CN(CCCCN)C(=O)CN(C(=O)CN(C(=O)CNCCCCN)[C@@H](C)C(C)C)[C@@H](C)C(C)C)[C@@H](C)C(C)C)[C@@H](C)C(C)C)[C@@H](C)C(C)C)[C@@H](C)C(C)C)[C@@H](C)C(C)C [1-Nsdpall, H-(Nlys-Nsdp-Nsdp)4-NH2]
HPLC elution (% ACN) ([1]; Table 5, average of three injections, linear 5%-95% acetonitrile/water (0.1% TFA) over 45 minutes, C18 column, measure of hydrophobicity): 63.2 % ACN
IC50 [2]: 64 µM
E. coli MIC (E. coli (ATCC 35218)): 50 µM
E. coli MIC (E. coli (ATCC 35218); Table 6): 25 µM
B. subtilis MIC (B. subtilis (ATCC 6633); Table 6): 0.78 µM
HD10 (human erythrocytes): >200/>200 μM
HD50 (human erythrocytes): >200/>200 μM

C[C@@H](c1ccccc1)N(CC(N)=O)C(=O)CN(C(=O)CN(CCCCN)C(=O)CN(C(=O)CN(C(=O)CN(CCCCN)C(=O)CN(C(=O)CN(C(=O)CN(CCCCN)C(=O)CN(C(=O)CN(C(=O)CN(CCCCN)C(=O)CN(C(=O)CN(C(=O)CNCCCCN)[C@@H](C)c1ccccc1)[C@@H](C)c1ccccc1)[C@@H](C)c1ccccc1)[C@@H](C)c1ccccc1)[C@@H](C)c1ccccc1)[C@@H](C)c1ccccc1)[C@@H](C)c1ccccc1)[C@@H](C)c1ccccc1)[C@@H](C)c1ccccc1 [115 mer, H-(Nlys-Nspe-Nspe)5-NH2]
cytotoxicity (in words) [3]: no worse than pexiganan
HD10 (10% hemolytic dose) (human erythrocytes): 3 µM
HD50 (50% hemolytic dose) (human erythrocytes): 19 µM

C[C@@H](c1ccccc1)N(CC(N)=O)C(=O)CN(Cc1ccccc1)C(=O)CN(CCCCN)C(=O)CN(C(=O)CN(Cc1ccccc1)C(=O)CN(CCCCN)C(=O)CN(C(=O)CN(Cc1ccccc1)C(=O)CN(CCCCN)C(=O)CN(C(=O)CN(Cc1ccccc1)C(=O)CNCCCCN)[C@@H](C)c1ccccc1)[C@@H](C)c1ccccc1)[C@@H](C)c1ccccc1 [1-Npm2,5,8,11, H-(Nlys-Npm-Nspe)4-NH2] (H-[Nlys][Nphe][Nspe][Nlys][Nphe][Nspe][Nlys][Nphe][Nspe][Nlys][Nphe][Nspe]-NH2)
IC50 [2]: 6.8 µM
E. coli MIC (E. coli (ATCC 35218)): 6.3 µM
B. subtilis MIC (B. subtilis (ATCC 6633)): 1.6 µM
HD10 (human erythrocytes): 87 µM
HD50 (human erythrocytes): > 200 µM
MIC Enterobacter aerogenes ATCC 35029 [4]: 36.3 µM (≈ 64 µg/mL)
MIC Pseudomonas aeruginosa ATCC 27853 [5]: 36.3 µM (≈ 64 µg/mL)
MIC Enterococcus faecalis ATCC 29212 [6]: 4.5 µM (≈ 7.93 µg/mL)
MIC P. mirabilis ATCC 35659 [7]: >128 µg/mL
MIC Proteus mirabilis ATCC 35659 [7]: >72.6 µM
MIC Proteus vulgaris ATCC 49132 [8]: 36.3 µM (≈ 64 µg/mL)
MIC Enterococcus faecium 106 (Enterococcus faecium 106): 2.3 µM (≈ 4.06 µg/mL)
MIC Staphylococcus aureus NRS120 [9]: 9.1 µM (≈ 16 µg/mL)
MIC Staphylococcus aureus VAN1 [10]: 4.5 µM (≈ 7.93 µg/mL)
MIC Staphylococcus aureus NRS100 (COL) [11]: 4.5 µM (≈ 7.93 µg/mL)
MIC Enterococcus faecalis 99 (Enterococcus faecalis 99): 36.3 µM (≈ 64 µg/mL)
MIC Staphylococcus aureus ATCC 29213 [12]: 4.5 µM (≈ 7.93 µg/mL)
MIC Klebsiella pneumoniae ATCC 33495 [13]: 9.1 µM (≈ 16 µg/mL)
MIC Escherichia coli ATCC 25922 [14]: 4.5 µM (≈ 7.93 µg/mL)
MIC Staphylococcus aureus NRS119 [15]: 9.1 µM (≈ 16 µg/mL)
MIC S. marcescens ATCC 13880 [16]: >128 µg/mL
MIC Serratia marcescens ATCC 13880 [16]: >72.6 µM
MIC Staphylococcus aureus VAN2 [17]: 4.5 µM (≈ 7.93 µg/mL)

CCC[C@H](C)N(CC(=O)N(CC(N)=O)[C@@H](C)c1ccccc1)C(=O)CN(CCCCN)C(=O)CN(C(=O)CN(C(=O)CN(CCCCN)C(=O)CN(C(=O)CN(C(=O)CN(CCCCN)C(=O)CN(C(=O)CN(C(=O)CNCCCCN)[C@@H](C)CCC)[C@@H](C)c1ccccc1)[C@@H](C)CCC)[C@@H](C)c1ccccc1)[C@@H](C)CCC)[C@@H](C)c1ccccc1 [2-Nsap2,5,8,11] (H-[Nlys][X2][Nspe][Nlys][X2][Nspe][Nlys][X2][Nspe][Nlys][X2][Nspe]-NH2)
HPLC elution solvent ([1]; Table 1, percent acetonitrile in water, 0.1% (v/v) TFA at HPLC elution): 48%
HD10 (10% hemolytic dose) (human erythrocytes): >120/>120 μM
HD50 (50% hemolytic dose) (human erythrocytes): >120/>120 μM
